Experimental data reported in PMC9917443 (eLife, 2023).

Assays:
GB1a/2 receptors [1] = molecular target: T1, GB1a/2 receptors (Homo sapiens, UniProt O75899+Q9UBS5); assay: SRE-luciferase accumulation assay (Gαqi/PLC) in HEK293T-Gαqi cells; conditions: constitutive and GABA-induced FLuc activity
GB1a/2 receptors [2] = molecular target: T1, GB1a/2 receptors; assay: BRET assay of G protein activation (Gαo-RLuc / Venus-Gγ2) in HEK293T cells; format: cell-based; set-up: Flag (N); expressed in transfected cells; host or cells: HEK293T cells stably expressing chimeric Gαqi; conditions: GABA or CGP54626, 10 μM
Description: We directly tested whether APP17 influences G protein activation by GBRs in transfected HEK293T cells. […] HEK293T cells were transiently transfected with Flag-GB1a, Flag-GB2, Gαo-RLuc, Gβ2, and Venus-Gγ2 plasmids with or without APP695. In order to ensure APP695 binding to GB1a/2 in trans a pool of HEK293T cells expressing APP695 was mixed with a pool of HEK293T cells expressing Flag-GB1a, Flag-GB2, Gαo-RLuc, Gβ2, and Venus-Gγ2. Transfected cells were seeded into 96-well microplates (Greiner Bio-One) at 100,000 cells/well. After 18 hr, cells were washed and coelenterazine h (5 µM, NanoLight Technologies, Prolume Ltd., Pinetop-Lakeside, AZ, USA) added for 5 min. […] BRET ratios were adjusted by subtracting the ratios obtained when RLuc fusion proteins were expressed alone. Each data point represents a technical quadruplicate.

GB1a/2 receptors [3] = molecular target: T1, GB1a/2 receptors; assay: PKA luminescence assay (R-RLuc-N / C-RLuc-C) of Gαi signaling in HEK293T cells; conditions: GABA 10 μM or CGP54626 10 μM; forskolin
mGlu5 receptors = assay: Ca^2+ mobilization assay (Calcium 6) in HEK293T cells expressing mGlu5; format: cell-based; conditions: 1 and 10 µM

T1 sequence (Q9UBS5 15-961 limits assumed): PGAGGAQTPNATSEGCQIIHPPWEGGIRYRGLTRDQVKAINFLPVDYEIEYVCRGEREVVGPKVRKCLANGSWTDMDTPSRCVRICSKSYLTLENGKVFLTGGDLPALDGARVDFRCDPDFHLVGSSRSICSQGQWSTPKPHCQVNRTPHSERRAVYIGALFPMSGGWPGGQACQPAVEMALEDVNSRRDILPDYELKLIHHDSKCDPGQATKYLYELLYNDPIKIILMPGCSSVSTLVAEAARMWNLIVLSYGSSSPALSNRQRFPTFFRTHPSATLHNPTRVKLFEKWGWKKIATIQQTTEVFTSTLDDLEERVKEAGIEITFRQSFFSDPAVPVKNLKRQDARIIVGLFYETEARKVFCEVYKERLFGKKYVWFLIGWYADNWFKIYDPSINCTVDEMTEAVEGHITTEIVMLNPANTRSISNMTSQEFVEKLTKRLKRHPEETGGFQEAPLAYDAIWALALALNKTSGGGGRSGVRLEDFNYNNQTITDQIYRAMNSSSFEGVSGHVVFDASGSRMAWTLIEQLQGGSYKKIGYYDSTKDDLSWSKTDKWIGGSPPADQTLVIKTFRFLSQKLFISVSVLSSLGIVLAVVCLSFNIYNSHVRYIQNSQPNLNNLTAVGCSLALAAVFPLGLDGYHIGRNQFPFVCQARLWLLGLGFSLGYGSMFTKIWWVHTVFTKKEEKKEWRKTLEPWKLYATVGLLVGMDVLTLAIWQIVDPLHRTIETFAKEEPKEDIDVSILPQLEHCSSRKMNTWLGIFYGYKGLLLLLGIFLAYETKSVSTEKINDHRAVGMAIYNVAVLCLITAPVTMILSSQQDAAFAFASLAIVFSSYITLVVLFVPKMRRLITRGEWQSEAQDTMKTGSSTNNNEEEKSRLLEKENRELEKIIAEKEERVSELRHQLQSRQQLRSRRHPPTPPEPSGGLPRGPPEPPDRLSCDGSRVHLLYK
T1 sequence (O75899 42-941 partner): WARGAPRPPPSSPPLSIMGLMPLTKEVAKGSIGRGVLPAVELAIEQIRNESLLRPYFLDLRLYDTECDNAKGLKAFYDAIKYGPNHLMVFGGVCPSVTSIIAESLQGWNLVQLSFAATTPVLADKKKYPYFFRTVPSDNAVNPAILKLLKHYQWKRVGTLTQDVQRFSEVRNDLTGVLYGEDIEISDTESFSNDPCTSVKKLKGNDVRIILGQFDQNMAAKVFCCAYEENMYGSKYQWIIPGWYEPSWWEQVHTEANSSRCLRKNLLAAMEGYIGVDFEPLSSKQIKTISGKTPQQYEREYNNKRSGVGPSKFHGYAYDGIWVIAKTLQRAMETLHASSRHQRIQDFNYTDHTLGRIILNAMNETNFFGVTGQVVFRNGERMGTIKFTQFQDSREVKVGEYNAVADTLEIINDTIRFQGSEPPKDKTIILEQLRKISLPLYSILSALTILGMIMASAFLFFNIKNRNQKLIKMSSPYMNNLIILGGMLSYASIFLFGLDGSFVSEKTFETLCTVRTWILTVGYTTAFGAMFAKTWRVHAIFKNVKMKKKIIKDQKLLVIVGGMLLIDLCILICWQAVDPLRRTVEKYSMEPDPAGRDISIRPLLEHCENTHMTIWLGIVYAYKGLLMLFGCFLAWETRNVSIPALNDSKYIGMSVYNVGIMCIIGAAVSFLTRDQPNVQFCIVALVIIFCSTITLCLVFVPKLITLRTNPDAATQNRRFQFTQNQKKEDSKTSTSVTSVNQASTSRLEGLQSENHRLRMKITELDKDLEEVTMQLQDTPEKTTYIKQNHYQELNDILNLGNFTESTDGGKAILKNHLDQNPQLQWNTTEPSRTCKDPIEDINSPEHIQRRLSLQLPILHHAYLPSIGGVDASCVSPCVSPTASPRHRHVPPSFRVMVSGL

| SMILES | block of receptor activity (in words) (GB1a/2 receptors [1]) | BRET change by receptor ligand (in words) (GB1a/2 receptors [2]) | luminescence change by receptor ligand (in words) (GB1a/2 receptors [3]) | intracellular Ca^2+ mobilization (in words) (mGlu5 receptors) |
| --- | --- | --- | --- | --- |
| C[C@H](NC[C@H](O)CP(=O)(O)CC1CCCCC1)c1ccc(Cl)c(Cl)c1 [CGP54626] | blocked constitutive and GABA-induced receptor activity | increased BRET above baseline | decreased luminescence below baseline |  |
| N[C@H](C(=O)O)c1cc(O)cc(O)c1 [DHPG] |  |  |  | concentration-dependent increase in intracellular Ca^2+ |
